Literature values as cited in patent US20210290639A1, “IMMEDIATE RELEASE FORMULATION OF A TRIPLE COMBINATION OF ACTIVE PHARMACEUTICAL INGREDIENTS USEFUL IN THE TREATMENT OF POLYCYSTIC OVARY SYNDROME” (priority 2018, published 2021).

Conditions: low solubility and high permeability

CC(=O)S[C@@H]1CC2=CC(=O)CC[C@]2(C)[C@H]2CC[C@@]3(C)[C@@H](CC[C@@]34CCC(=O)O4)[C@H]12 [spironolactone, 7α-Acetylthio-3-oxo-17α-pregn-4-ene-21,17β-carbolactone]
BCS class: Class II

CCc1ccc(CCOc2ccc(CC3SC(=O)NC3=O)cc2)nc1 (racemic) [pioglitazone, ((±)-5-[p-[2-(5-Ethyl-2-pyridyl)ethoxy]benzyl]-2,4-thiazolidinedione]
BCS class: Class II
